This note sets out measurements from article PMC6041282, “Inhibition and Eradication of Pseudomonas aeruginosa Biofilms by Host Defence Peptides” (Scientific Reports, 2018).

Converted amounts (≈) assume the structure as drawn. Where no end group is shown, it is not given here.

The first test relates to planktonic P. aeruginosa. Conditions: broth dilution in MHB, 0-40 μM peptide, no visual growth after 24 h at 37 °C, polypropylene 96 wells plate. (Dilution methods test growth across graded concentrations, often in twofold steps.)
Protocol: Antimicrobial activity of HDP’s against planktonic P. aeruginosa was assessed using broth dilution assays. An overnight culture of P. aeruginosa was grown in MHB at 37 °C to mid-logarithmic phase and diluted to 2 × 10^6 CFU/ml. In a round bottom polypropylene 96 wells plate 50 μl bacteria were mixed with 50 μl of HDP (final concentration 0–40 μM). MIC was defined as the concentration of peptide which inhibited visual growth of bacteria in the wells after 24 h incubation at 37 °C. Subsequently, wells without visual growth were plated out on TSA plates and incubated at 37 °C for 24 h to determine the MBC.
Broadly, the MIC is the lowest concentration that inhibits growth of the organism. Compound “GLLRKGGEKIGEKLKKIGQKIKNFFQKLVPQPEQ [CRAMP]” showed a minimum inhibitory concentration (MIC) of 40 µM.
Same read-out and setting: the result for `CC[C@H](C)[C@H](NC(=O)[C@H](CCCCN)NC(=O)[C@H](CCC(=O)O)NC(=O)[C@H](CCCCN)NC(=O)[C@H](CO)NC(=O)[C@H](CCCCN)NC(=O)[C@H](CCCNC(=N)N)NC(=O)[C@H](Cc1ccccc1)NC(=O)[C@H](Cc1ccccc1)NC(=O)[C@H](CC(=O)O)NC(=O)CNC(=O)[C@H](CC(C)C)NC(=O)[C@@H](N)CC(C)C)C(=O)NCC(=O)N[C@@H](CCCCN)C(=O)N[C@@H](CCC(=O)O)C(=O)N[C@@H](Cc1ccccc1)C(=O)N[C@@H](CCCCN)C(=O)N[C@@H](CCCNC(=N)N)C(=O)N[C@H](C(=O)N[C@H](C(=O)N[C@@H](CCC(N)=O)C(=O)N[C@@H](CCCNC(=N)N)C(=O)N[C@H](C(=O)N[C@@H](CCCCN)C(=O)N[C@@H](CC(=O)O)C(=O)N[C@@H](Cc1ccccc1)C(=O)N[C@@H](CC(C)C)C(=O)N[C@@H](CCCNC(=N)N)C(=O)N[C@@H](CC(N)=O)C(=O)N[C@@H](CC(C)C)C(=O)N[C@H](C(=O)N1CCC[C@H]1C(=O)N[C@@H](CCCNC(=N)N)C(=O)N[C@H](C(=O)N[C@@H](CCC(=O)O)C(=O)N[C@@H](CO)C(=O)O)[C@@H](C)O)C(C)C)[C@@H](C)CC)C(C)C)[C@@H](C)CC` [LL-37] reads 10 µM (≈ 44.9 µg/mL).

Still in this test, the particulars now being: planktonic, 24 h.
Usually MBC stands for the lowest tested concentration that kills the bacteria rather than only halting them. The low end stands for greater bactericidal potency, the high end for weaker bactericidal potency. With “KRFHSVGSLIQRHQQMIRDKSEATRHGIRIITRPKLLLAS [eCATH-3]”, the MBC was more than 40 µM and the MIC was more than 40 µM.
“RRRPRPPYLPRPRPPPFFPPRLPPRIPPGFPPRFPPRFP [PR-39]” showed an MBC of 10 µM and an MIC of 5 to 10 µM.
Compound RFGRFLRKIRRFRPKVTITIQGSARF [cCATH-2] came in with a minimum bactericidal concentration (MBC) of 10 to 20 µM and an MIC of 5 to 10 µM.
In the same order, the values of KRRHWFPLSFQEFLEQLRRFRDQLPFP [eCATH-2] are more than 40 µM and more than 40 µM.
On the same counts, the results for KRFGRLAKSFLRMRILLPRRKILLAS [eCATH-1] are 5 to 10 µM and 2.5 to 5 µM.
On the same counts, the results for RIIDLLWRVRRPQKPKFVTVWVR [PMAP-23] are more than 40 µM and 40 µM.
The compound “RLKELITTGGQKIGEKIRRIGQRIKDFFKNLQPREEKS [K9CATH]” gave a minimum bactericidal concentration (MBC) of more than 40 µM and a minimal inhibitory concentration (MIC) of 40 µM.
Regarding RVKRFWPLVPVAINTVAAGINLYKAIRRK [cCATH-3], the minimum bactericidal concentration (MBC) was in the range of 5 to 10 µM.

Still in this test, the particulars now being: wells without visual growth plated on TSA, 24 h at 37 °C.
“GLLRKGGEKIGEKLKKIGQKIKNFFQKLVPQPEQ [CRAMP]” yielded an MBC of more than 40 µM.
Turning to `CC[C@H](C)[C@H](NC(=O)[C@H](CCCCN)NC(=O)[C@H](CCC(=O)O)NC(=O)[C@H](CCCCN)NC(=O)[C@H](CO)NC(=O)[C@H](CCCCN)NC(=O)[C@H](CCCNC(=N)N)NC(=O)[C@H](Cc1ccccc1)NC(=O)[C@H](Cc1ccccc1)NC(=O)[C@H](CC(=O)O)NC(=O)CNC(=O)[C@H](CC(C)C)NC(=O)[C@@H](N)CC(C)C)C(=O)NCC(=O)N[C@@H](CCCCN)C(=O)N[C@@H](CCC(=O)O)C(=O)N[C@@H](Cc1ccccc1)C(=O)N[C@@H](CCCCN)C(=O)N[C@@H](CCCNC(=N)N)C(=O)N[C@H](C(=O)N[C@H](C(=O)N[C@@H](CCC(N)=O)C(=O)N[C@@H](CCCNC(=N)N)C(=O)N[C@H](C(=O)N[C@@H](CCCCN)C(=O)N[C@@H](CC(=O)O)C(=O)N[C@@H](Cc1ccccc1)C(=O)N[C@@H](CC(C)C)C(=O)N[C@@H](CCCNC(=N)N)C(=O)N[C@@H](CC(N)=O)C(=O)N[C@@H](CC(C)C)C(=O)N[C@H](C(=O)N1CCC[C@H]1C(=O)N[C@@H](CCCNC(=N)N)C(=O)N[C@H](C(=O)N[C@@H](CCC(=O)O)C(=O)N[C@@H](CO)C(=O)O)[C@@H](C)O)C(C)C)[C@@H](C)CC)C(C)C)[C@@H](C)CC` [LL-37], the MBC was 10 to 20 µM.
